The results in this text go back to ChEMBL document CHEMBL2321709, “Acetylcholinesterase immobilized capillary reactors-tandem mass spectrometry: an on-flow tool for ligand screening” (J Med Chem, 2013).

The structures appear in SMILES notation.

Assay [1] deals with Acetylcholinesterase (Electrophorus electricus) (UniProt O42275). The experiment in a line: Inhibition of Electrophorus electricus AChE using acetylcholine as substrate by chromatography relative to control. To be noted: concentration not given here.
A further assay addresses Acetylcholinesterase (Electrophorus electricus, UniProt O42275). The experiment in a line: Competitive inhibition of Electrophorus electricus AChE using acetylcholine as substrate by Lineweaver-Burk plot method.

Sequence of Acetylcholinesterase (O42275 whole entry): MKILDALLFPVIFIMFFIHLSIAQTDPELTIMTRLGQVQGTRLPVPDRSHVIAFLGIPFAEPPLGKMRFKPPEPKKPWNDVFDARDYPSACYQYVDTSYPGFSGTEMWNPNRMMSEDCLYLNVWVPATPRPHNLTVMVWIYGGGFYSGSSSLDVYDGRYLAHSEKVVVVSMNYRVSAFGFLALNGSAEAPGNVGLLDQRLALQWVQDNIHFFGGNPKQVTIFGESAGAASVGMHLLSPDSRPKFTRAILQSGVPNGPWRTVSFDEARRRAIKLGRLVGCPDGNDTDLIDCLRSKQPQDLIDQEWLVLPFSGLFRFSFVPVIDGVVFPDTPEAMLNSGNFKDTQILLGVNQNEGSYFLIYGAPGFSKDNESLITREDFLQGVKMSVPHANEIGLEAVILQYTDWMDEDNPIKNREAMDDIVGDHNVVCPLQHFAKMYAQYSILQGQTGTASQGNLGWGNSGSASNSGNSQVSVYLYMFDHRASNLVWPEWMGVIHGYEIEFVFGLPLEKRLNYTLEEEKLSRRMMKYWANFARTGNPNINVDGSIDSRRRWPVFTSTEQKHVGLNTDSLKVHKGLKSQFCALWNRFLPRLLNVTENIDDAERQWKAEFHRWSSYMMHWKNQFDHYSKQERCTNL
Sequence of Acetylcholinesterase (Electrophorus electricus) (O42275 24-633 limits assumed): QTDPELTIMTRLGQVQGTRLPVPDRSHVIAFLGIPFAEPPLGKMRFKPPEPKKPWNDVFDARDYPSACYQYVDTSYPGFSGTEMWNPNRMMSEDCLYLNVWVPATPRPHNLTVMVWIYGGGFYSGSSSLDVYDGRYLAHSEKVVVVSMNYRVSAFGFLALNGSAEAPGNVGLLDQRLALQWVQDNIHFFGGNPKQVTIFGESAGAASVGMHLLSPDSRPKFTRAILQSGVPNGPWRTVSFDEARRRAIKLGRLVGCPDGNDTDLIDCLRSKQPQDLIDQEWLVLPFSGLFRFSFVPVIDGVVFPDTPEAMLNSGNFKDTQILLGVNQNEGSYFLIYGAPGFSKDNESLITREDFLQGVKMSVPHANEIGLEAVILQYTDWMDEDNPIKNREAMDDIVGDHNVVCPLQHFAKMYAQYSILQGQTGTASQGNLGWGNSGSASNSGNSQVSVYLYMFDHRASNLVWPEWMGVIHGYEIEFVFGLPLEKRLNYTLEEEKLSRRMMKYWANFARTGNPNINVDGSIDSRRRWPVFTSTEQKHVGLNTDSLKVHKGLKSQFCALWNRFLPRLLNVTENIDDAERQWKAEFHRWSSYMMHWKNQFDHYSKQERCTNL

What is called inhibition is the drop in the measured response relative to a control, in per cent. Usually IC50 stands for the concentration needed to halve the response being measured. Low values mean higher potency, high ones lower potency. As a reminder, the Ki is the dissociation constant of the complex between target and ligand, obtained from inhibition or displacement. A higher Ki goes with weaker binding. Take `CCOC(=O)c1cc2ccc(OCCN3CCCCC3)cc2oc1=O`: the inhibition in assay [1] was more than 80%. Also, on Acetylcholinesterase, the IC50 came to 0.356 µM and the affinity, expressed as Ki, was 0.031 µM.
The like results for `O=C(NCCN1CCCCC1)c1cc2ccccc2oc1=O` were, in that order, more than 80%, 12.6 µM and 13.8 µM.
